Assay results: patent US20130074216A1, “TOMATO CATECHOL-O-METHYLTRANSFERASE SEQUENCES AND METHODS OF USE” (UNIVERSITY OF FLORIDA RESEARCH FOUNDATION, INC., priority 2011, published 2013)

Experiments:
SIOMT1 = experiment: Substrate specificity assay of purified recombinant SIOMT1 with [14C]-AdoMet; assay type: biochemical, Solanum lycopersicum; details: 15 μM substrate, 30 min, 25°, products extracted with hexanes, scintillation counting
Experimental: FIG. 2 illustrates the chemical structure and relative activity of SIOMT1 on catechol and substrates with similar structure to catechol. Relative activity was determined by incubating purified SIOMT with excess amounts of [C^14]-AdoMet and […] of substrate. Products were extracted with hexanes and measured with a scintillation counter. Relative activity is expressed as a percentage of activity on catechol. 1=catechol; 2=guaiacol; 3=salicylic acid; 4=benzoic acid; 5=orcinol; 6=caffeic acid.
For substrate specificity assays, 5 μL purified enzyme was assayed at 25° in a 100 μL reaction containing 50 mM Tris-HCl, pH 7.5, 100 mM KCl, 2.8 mM BME, 15 μM substrate, 10 mM SAM, 0.4 mM [methyl-^14C] AdoMet (specific activity 50.4 mCi mmol^−1; Amersham). Substrates were diluted in 50% EtOH. Assays were done in triplicate, including boiled enzyme controls. After 30 min at 25° the reactions were stopped by adding equal volumes of hexanes. The methylated substrate was extracted on a vortex mixer for 15 sec and centrifuging at 13 200 g for 5 min. 50 μL of the organic layer was counted for 10 min in 3 ml Ready Gel Scintillation Fluid (Beckman Coulter, http://www.beckmancoulter.com). Counts for the boiled enzyme controls were subtracted from the sample counts, and activity for catechol was normalized to 100%. For the Km of catechol, procedures were the same as above, except for catechol concentrations. Concentrations used were: 0, 1, 5, 15, 25, and 50 μM.
To further test the specificity of SGN-U582403 (SIOMT1) for catechol, the activity of SIOMT1 on substrates with similar structure to catechol was measured. Purified protein was incubated with [^14C]-AdoMet and the following potential substrates: catechol, guaiacol, salicylic acid, benzoic acid, orcinol, or caffeic acid. Products were extracted with hexanes and measured with a scintillation counter.

[1] = system: tomato fruit pericarp discs; experiment: Catechol feeding of tomato fruit pericarp discs, guaiacol by GC/MS; assay type: cell-based, Solanum lycopersicum cv. Flora-Dade; details: 10 μl of 1 M catechol per disc
Experimental: FIGS. 6A and 6B illustrate results of catechol feeding of tomato discs. Tomato fruit discs were made from the pericarp of Flora-Dade and SIOMT1OE ripe fruit and treated with water or catechol. Volatiles of the discs were collected after 5 h and analyzed using GC-MS. FIG. 6A illustrates the spectrum showing the guaiacol peak at 20.65 minutes. […] The table in FIG. 6B summarizes the differences in guaiacol production between Flora-Dade and SIOMT1OE.
Tomato discs were cut from pericarp tissue of ripe WT and SIOMT1 over-expressing fruit using a size 10 borer. A hundred discs were used for each sample treatment. Discs were placed in petri dishes and an X was cut in the top of each. 10 μl of either water or 1 M catechol dissolved in water was pipetted into each disc. Cover were place on petri dish and disc were left to incubate for 5 hr. Disc were then place in glass tube and volatiles were extracted as previously described. Guaiacol was quantified on GC/MS using a guaiacol standard curve.
Rather, low concentrations of catechol might limit the production of guaiacol in SIOMT1 plants. Thus, to further test this, catechol was fed to fruit pericarp discs of Flora-Dade (WT) and SIOMT1 over-expressing lines. Volatiles were collected after incubation for […]. Both WT and SIOMT1 discs produced increased guaiacol when fed catechol. […]

[2] = Initial screen: catechol added to E. coli cultures expressing candidate OMT, guaiacol production measured; assay type: cell-based, Solanum lycopersicum cv. M82; details: induced protein in E. coli cultures
Experimental: Potential S. lycopersicum catechol OMT candidates were selected by identification of genes with homology to previously characterized catechol and caffeic acid OMTs (FIG. 1). Five candidate genes were selected, SGN-U582403, SGN-U565623, SGN-U319245, SGN-U575022, and SGN-U321686. Full length cDNAs were synthesized from S. lycopersicum cv. M82 ripe fruit RNA. Candidate genes were cloned into pET160 plasmids for expression in E. coli. Initial screens were performed by adding catechol directly to bacterial cultures expressing induced protein and measuring guaiacol production.

Molecule | activity of SIOMT1 on substrate relative to catechol (SIOMT1) | guaiacol produced by catechol-fed discs relative to the unfed control ([1]; SIOMT1 over-expressing discs) [times] | guaiacol produced by catechol-fed discs relative to the unfed control ([1]; WT (Flora-Dade) discs) [times] | conversion of catechol to guaiacol by candidate OMT [2]
O=C(O)/C=C/c1ccc(O)c(O)c1 [caffeic acid] | slight activity | – | – | –
Oc1ccccc1O [catechol] | preferentially methylated | 52 | 36 | –
Cc1cc(O)cc(O)c1 [orcinol] | slight activity | – | – | –
U582403: tomato catechol O-methyltransferase from S. lycopersicum, SEQ ID NO: 3 (protein, S. lycopersicum) MGSTANIQLATQSEDEERNCTYAMQLLSSSVLPFVLHSTIQLDVFDILAKDKAATKLSALEIVSHMPNCKNPDAATMLDRMLYVLASYSLLDCSVVEEGNGVTERRYGLSRVGKFFVRDEDGASMGPLLALLQDKVFINSWFELKDAVLEGGVPFDRVHGVHAFEYPKLDPKFNDVFNQAMINHTTVVMKRILENYKGFENLKTLVDVGGGLGVNLKMITSKYPTIKGTNFDLPHVVQHAPSYPGVDHVGGDMFESVPQGDAIFMKWILHDWSDGHCLKLLKNCHKALPDNGKVIVVEANLPVKPDTDTTVVGVSQCDLIMMAQNPGGKERSEQEFRALASEAGFKGVNLICCVCNFWVMEFYK | – | – | – | converted catechol to guaiacol
